From ChEMBL document CHEMBL1144314, “Synthesis and antibacterial activity of 1-[1,2,4-triazol-3-yl] and 1-[1,3,4-thiadiazol-2-yl]-3-methylthio-6,7-dihydrobenzo[c]thiophen-4(5H)ones” (2005) come the findings set out here.

Holding throughout (format): functional
The test system of one assay is Aspergillus niger. Put plainly: Antimicrobial activity against Aspergillus niger was determined.
A further assay has as its system Bacillus subtilis. Put plainly: Antimicrobial activity of the compound against Bacillus subtilis was determined.
In assay [1] the test system is Staphylococcus epidermidis. Kind of assay: Antimicrobial activity against Staphylococcus epidermidis was determined.
The subject of a further assay is Staphylococcus aureus. Kind of assay: Antimicrobial activity of the compound against Staphylococcus aureus was determined.
In the next assay the test system is Pseudomonas aeruginosa. Kind of assay: Antimicrobial activity against Pseudomonas aeruginosa was determined.
A further assay has as its system Bacillus cereus. Kind of assay: Antimicrobial activity against Bacillus cereus was determined.
The subject of another assay is Candida albicans. Put plainly: Antimicrobial activity against Candida albicans was determined.

On to `CSc1sc(-c2nnc(NC3CCCCC3)s2)c2c1C(=O)CCC2`, for which the Zone of inhibition in the assay on Aspergillus niger is 12 mm.

For the molecule `CSc1sc(-c2nnc(SC)n2-c2ccc([N+](=O)[O-])cc2)c2c1C(=O)CCC2`, the Zone of inhibition with Bacillus subtilis turned out to be 21 mm; in assay [1] it was 24 mm; with Staphylococcus aureus, 18 mm; with Pseudomonas aeruginosa, 14 mm; in the assay on Bacillus cereus it was 12 mm.

Take `CSc1sc(-c2nnc(Nc3ccc([N+](=O)[O-])cc3)s2)c2c1C(=O)CCC2`: the Zone of inhibition in the assay with Bacillus subtilis is listed as 33 mm; with Aspergillus niger, 10 mm; in the assay on Candida albicans, 14 mm.

For `CCCCNc1nnc(-c2sc(SC)c3c2CCCC3=O)s1`, the results for the Zone of inhibition in the assay on Bacillus subtilis, in the assay on Aspergillus niger and in the assay on Candida albicans were 22 mm, 9 mm and 11 mm, respectively.

With `CCNc1nnc(-c2sc(SC)c3c2CCCC3=O)s1`, the Zone of inhibition is recorded as 20 mm with Bacillus subtilis, 8 mm in the assay on Aspergillus niger and 13 mm in the assay on Candida albicans.

With `C[C@@H]1[C@H](O)[C@@H](C)/C=C/C=C/C=C/C=C/C=C/C=C/C=C/[C@H](O[C@@H]2O[C@H](C)[C@@H](O)[C@H](N)[C@@H]2O)C[C@@H]2O[C@](O)(C[C@@H](O)C[C@@H](O)[C@H](O)CC[C@@H](O)C[C@@H](O)CC(=O)O[C@H]1C)C[C@H](O)[C@H]2C(=O)O` [AMPHOTERICIN B], the Zone of inhibition in the assay on Aspergillus niger and with Candida albicans was 22 mm throughout.

Take GENTAMICIN: the figures for the inhibition zone (IZ) (in the assay on Bacillus subtilis; in assay [1]; with Bacillus cereus) were 30 mm, 20 mm and 28 mm, respectively.

The molecule `COc1ccc(-n2c(S)nnc2-c2sc(SC)c3c2CCCC3=O)cc1` returned a Zone of inhibition with Bacillus subtilis of 11 mm.

In the case of `CCCCn1c(S)nnc1-c1sc(SC)c2c1CCCC2=O`, the results for the Zone of inhibition (in the assay with Bacillus subtilis; in assay [1]; in the assay with Staphylococcus aureus) were 14 mm, 26 mm and 17 mm, respectively.

Turning to `O=C1CN(/N=C/c2ccc([N+](=O)[O-])o2)C(=O)N1` [NITROFURANTOIN], the Zone of inhibition is recorded as 18 mm with Bacillus subtilis, 21 mm in the assay with Staphylococcus aureus, 21 mm in the assay on Pseudomonas aeruginosa and 20 mm in the assay with Bacillus cereus.

With `CCCCn1c(SC)nnc1-c1sc(SC)c2c1CCCC2=O`, the Zone of inhibition was found to be 16 mm in the assay with Bacillus subtilis, 26 mm in assay [1], 17 mm in the assay on Staphylococcus aureus and 16 mm in the assay on Bacillus cereus.

For the molecule `CSc1sc(-c2nnc(S)n2-c2ccc([N+](=O)[O-])cc2)c2c1C(=O)CCC2`, the Zone of inhibition with Bacillus subtilis stood at 23 mm; in assay [1], 25 mm; in the assay on Staphylococcus aureus it was 18 mm; with Pseudomonas aeruginosa it was 14 mm.

As to `CNc1nnc(-c2sc(SC)c3c2CCCC3=O)s1`, the Zone of inhibition is reported as 28 mm with Bacillus subtilis, 11 mm in the assay with Aspergillus niger and 12 mm in the assay on Candida albicans.
